Results reported in a melting point compilation (Tetko et al.; mined from patent text by program, amines drawn as free bases though some values may be those of a salt).

| Structure (SMILES) | melting point [°C] |
| --- | --- |
| CCOC(=O)C(=O)Nc1sc(C(=O)OCC)c(CC)c1[N+](=O)[O-] | 70 to 73 |
| CC(C)(C)OC(=O)NC1CCN(CC23CC(c4ccccc42)c2ccccc23)CC1 | 155 to 160 |
| Cn1ncc(C(=O)N2CCC2)c1C(=O)Nc1cc2nc(-c3ccccc3)nn2cc1F | > 250 |
| Cc1cc2ncnn2nc1OCC(C)(C)CCCS(N)(=O)=O | 171 to 172 |
| CCOC(=O)c1ncc2[nH]c3ccc(-n4cccc4)cc3c2c1C | 214 to 217 |
| Cc1ccc(C(C)(C)C)c(Oc2ccc(O)cc2)c1 | 102 |
| COc1cc(COc2ccccc2C=O)cc(OC)c1 | 68 to 69 |
| O=c1c(O)c(-c2nnc(Cc3ccc(F)cc3)o2)oc2ccccc12 | 221 |
| CCn1c(=O)c2[nH]c(/C=C/c3ccc(F)c(Cl)c3)nc2n(CC)c1=O | > 270 |
| CCCCc1nc2c(N)nc3ccccc3c2n1CC1(O)CCCCC1 | 218 to 220 |
| Cc1oc2c(C)c(C)c(NC(=O)CC(C)(C)C)c(C)c2c1-c1ccc(C(C)C)cc1 | 253 to 254 |
| ClCc1ccc(OCc2coc(/C=C/c3ccccc3)n2)cc1 | 116 to 117 |
| N#CC=C1CCN(c2ccc(N3C[C@H](CNC(=S)CO)OC3=O)cc2F)CC1 | 102 to 105 |
| Cc1ccc(NC(=O)c2ccc(CN3CCN(C)CC3)c(C(F)F)c2)cc1Nc1nccc(-c2cncnc2)n1 | 206 to 207 |
| COc1cc(C=C2SC(N3CCCC3)=NC2=O)cc(-c2ccc(O)c(C34CC5CC(CC(C5)C3)C4)c2)c1O | 353 to 355 |
| Cc1nc(-c2ccccc2)oc1C(N)=O | 187 to 190 |
| Nc1nc(N)c(NC=O)c(Cl)n1 | > 300 |
| CCOC(=O)NN(C)c1cc(C)c(-c2ccc(C#N)cc2)nn1 | 138 to 142 |
| ON=C1Cc2ccccc2C(=NO)c2ccccc21 | 220 to 221 |
| CSc1ccnc(Oc2cc(C#N)cc(C#N)c2)n1 | 237 |
| Cc1cccc(C(=O)NC(Nc2c(Nc3cccnc3)c(=O)c2=O)C(C)(C)C)c1 (centres undefined) | 236 to 237 |
| O=C(c1ccco1)c1cnn2c(-c3cccc(N4CCCCC4=O)c3)ccnc12 | 159 to 160 |
| CCCc1c(C(=O)OCC)sc2[nH]c(=O)c(=O)[nH]c12 | 305 to 307 |
| Cn1ncc(C(=O)NN)c1S(N)(=O)=O | 172 to 173 |
| CCCCCCOC(=O)C(CSC(=O)C(C)c1ccc(CC(C)C)cc1)NC(C)=O (centres undefined) | 40 to 45 |

| Structure (SMILES) | melting point [°C] |
| --- | --- |
| O=C(C=Cc1cncc(F)c1)NCCCCN1CCN(C(c2ccccc2)c2ccccc2)CC1 | 128 to 129 |
| Cc1ccc(CSCCCCCOc2ccc(C3=C(c4ccccc4)CCCc4cc(O)ccc43)cc2)cc1 | 165 to 169 |
| c1ccc2cc(OC3CCC4(CCNCC4)CC3)ccc2c1 | 132 to 134 |
| CCCC1c2cc(C(C)(C)C)cc(C(C)(C)C)c2OP(=O)(c2ccccc2)Oc2c1cc(C(C)(C)C)cc2C(C)(C)C (centres undefined) | 232 to 234 |
| N#CCNS(=O)(=O)c1ccccc1 | 81 to 83 |
| CC(C)C[C@H](N)[C@@H](O)CCSCCc1ccccc1 | 95 to 96 |
| CC(C)(C)COc1ccc(NC(=O)c2cccn2-c2ccc(F)cc2)cc1C#N | 181 to 182 |
| O=C(O)c1cc(=O)c2c(OCC(O)COc3ccc(Cl)cc3)cccc2o1 (centres undefined) | 191 to 193 |
| C/C(=N\OC(=O)[C@@H](NC(=O)OC(C)(C)C)C(C)C)[C@H]1CC[C@H]2[C@@H]3CCC4=CC(=O)CC[C@]4(C)[C@H]3CC[C@]12C | 82 to 84 |
| COc1cccc2c(=O)cc(C3CC3C(=O)O)oc12 (centres undefined) | 193 to 196 |
| CC(C)(C)OC(=O)N1CCn2c(c(C(N)=O)c(C#N)c2-c2ccccc2)C1 | 214 to 215 |
| O=c1c2cc3ncn(CCc4cccc(F)c4)c(=O)c3cc2ncn1CCc1cccc(F)c1 | 250 to 251 |
| CCOc1ccc(Cl)cc1C(N)=O | 136 to 139 |
| COc1cc(C=C2COCC3=C2N=C2SCCN2C3c2cc(OC)c(OC)c(OC)c2)cc(OC)c1OC (centres undefined) | 153 to 155 |
| CC1(C)Cc2c(c(N3CCCC3)nc3sc4c(NCc5ccccn5)ncnc4c23)CO1 | 249 to 251 |
| CC(C)Sc1cc2c(cc1Cl)N=C(C(Cl)Cl)NS2(=O)=O | 287 to 289 |
| CS(=O)(=O)c1ccc(-c2nn3c(-c4ccccc4)c(-c4ccccc4)oc3c2-c2ccc(F)cc2)cc1 | 228 to 229 |
| Cc1[nH]c(C(=O)SCC(=O)O)nc1-c1cc(C(C)(C)C)c(O)c(C(C)(C)C)c1 | 252 to 254 |
| CCOC(=O)C1=C(COCCNS(N)(=O)=O)NC(C)=C(C(=O)OC)C1c1ccccc1Cl (centres undefined) | 150 to 152 |
| N#Cc1ccc(F)cc1-c1ccc(F)cc1 | 111 to 113 |
| CC(=O)n1ncc2c(OCC3CO3)cccc21 (centres undefined) | 83 |
| CCOC(=O)C1=C[C@@H](OC(CC)CC)[C@@H](NC(C)=O)[C@H](O)[C@@H]1O | 154 |
| CNC(=O)CCCc1cncc2ccc(OC)cc12 | 117 to 119 |
| Cc1oc(-c2ccccc2)nc1COc1ccc(COc2ccccc2CC(=O)O)cc1 | 153 to 154 |
| C=CCc1cc(OCCOC)ccc1OCC1(O)CN2CCC1CC2 (centres undefined) | 58 to 60 |

| Structure (SMILES) | melting point [°C] |
| --- | --- |
| Cc1cccc(C(=O)Cc2ccnc(-c3ccc(OC(F)(F)F)cc3)c2)n1 | 76 to 78 |
| CCCP(=O)(O)CC(=O)CNCc1ccccc1 | 155 to 157 |
| Cc1nc(C)c(Cl)c(NCc2nccc(CNCCO)c2Cl)n1 | 162 to 165 |
| O=S(=O)(NN=C(Cl)c1ccccc1Br)c1ccccc1 | 120 to 122 |
| CC(C(=O)O)c1cccc(NC(=O)NCC(=O)N2[C@@H](c3ccccc3F)SC[C@H]2C(=O)OC(C)(C)C)c1 (some centres undefined) | 126 |
| CC(C)CCCC(C)C1CCC2C3CC=C4CC(OC(=O)NCC(=O)N(CCCl)CCCl)CCC4(C)C3CCC12C (centres undefined) | 98 to 100 |
| COc1ccc(S(=O)(=O)Nc2cccnc2Nc2ccccc2)cc1OC | 171 to 172 |
| CCOC(=O)c1c(C)nc2c(c1Cl)c1ccccc1n2C | 123 to 124 |
| N#Cc1cnc2cc3c(cc2c1Nc1ccc(Cl)cc1Cl)OCCN3 | 254 to 255 |
| Cn1c(=O)c2conc2n(C2CCCCC2)c1=O | 194 to 197 |
| CCCc1cc(Cl)c2oc(Cc3ccc(OC)cc3)c(C)c2c1OC(=O)OCC | 99 to 100 |
| CCN(CC)CCNC(=O)c1cccc2c(=O)cc(-c3ccc([N+](=O)[O-])cc3)oc12 | 207 to 209 |
| CS(=O)(=O)NCCn1nnnc1S | 131 to 132 |
| CC(C)C(S)C(=O)NCC(=O)O (centres undefined) | 118 to 119 |
| Cc1c(Cc2cc(=O)n(C3CCCCC3)[nH]2)c2ccccc2n1C(=O)c1ccc(Cl)cc1 | 98 |
| O=C1c2cccc(N3CCCC3)c2OC12CC2 | 102 |
| O=C(O)CCn1c(=O)c2ccccc2n(CCCN2CCC(OC(c3ccccc3)c3ccccc3)CC2)c1=O | 150 to 151 |
| C[C@@H](S[C@H]1CO[C@H](/C=C/C=C/c2ccc(C#N)cc2)OC1)[C@](O)(Cn1cncn1)c1ccc(F)cc1F | 147 to 149 |
| Brc1ccccc1Cn1c(-c2ccc3c(c2)OCO3)nc2ccccc21 | 122 to 124 |
| CCCCCCOc1cc(C(=O)O)cc([N+](=O)[O-])c1C(=O)c1ccccc1 | 165 to 166 |
| NC(=O)N(O)Cc1cccc(OCc2coc(-c3ccc(F)cc3)n2)c1 | 89 to 91 |
| CCCC(C)(C)c1cc(C=O)cc(C(C)(C)CCC)c1O | 90 to 92 |
| NC(=O)c1ccc2c(c1)nc(-c1ccc(OCc3ccccc3)cc1)n2C1CCCC1 | 232 to 233 |
| c1ccc(Nc2ccc3nnn(Cc4ccc5ncccc5c4)c3n2)cc1 | 237 to 239 |
| O=C(O)CCCCCCCCCCCCCCCI | 71 to 72 |

| Structure (SMILES) | melting point [°C] |
| --- | --- |
| CC(C)(C)c1cc(SCCC=O)cc(C(C)(C)C)c1O | 64 to 65 |
| CCOC(=O)Cn1c(C(=O)OCC)c2c(c1C(=O)OCC)OCCCO2 | 140 |
| Cn1cc(C(=O)NCc2ccc(Cl)cc2)c(=O)c2cc(CN3CCOc4ccccc43)ccc21 | 193 to 194 |
| COC(=O)c1ccc(-c2nnc(-c3ccc(C(C)(C)C)cc3)o2)c([N+](=O)[O-])c1 | 142 to 143 |
| CCc1cccc(CC)c1-n1c(C(=O)O)cnc1SCc1ccccc1 | 152 to 154 |
| NC(=NO)c1cc2c(Oc3ccc(Cl)cc3)cncc2s1 | 194 to 196 |
| Cc1cc(C(=O)Nc2cccc(Oc3ccc4nc(NC(=O)CN(C)C)cn4n3)c2)n(C)n1 | 210 |
| CONC(=O)Nc1ccc(-c2sc3c(c2CN(C)C(C)c2ccccc2)c(=O)n(-c2ccc(F)cn2)c(=O)n3Cc2c(F)cccc2F)cc1 (centres undefined) | 128 to 130 |
| O=C1NCCN1c1cccc([N+](=O)[O-])c1 | 158 to 160 |
| COC(=O)c1cc(O)cc(-c2ccccc2)c1 | 108 to 110 |
| Nc1c(Cl)ncnc1Nn1ccc2ccccc21 | 175 to 176 |
| CCOc1cccc2c(=O)c3ccccc3sc12 | 112 to 115 |
| N#CC(C(=O)c1ccncc1)c1ccc(F)cc1 (centres undefined) | 230 to 232 |
| O=C(CCl)COc1cccc(C(F)(F)F)c1 | 38 to 39 |
| COCc1c(N2CCN(C)CC2)c(F)cc2c(=O)c(C(=O)OC)cn(C3CC3)c12 | 200 to 204 |
| CCCOc1cc2nc(Cl)nc(Cl)c2cc1OC | 118 to 120 |
| O=CN1CCN(Cc2nc3ccccc3[nH]2)CC1 | 194 to 198 |
| CCCc1n[nH]c(=O)c2c(C)ncn12 | 168 to 170 |
| C=Cc1ccc2[nH]cc(S(=O)(=O)c3ccccc3)c2c1 | 140 to 145 |
| O=C(CCCN1CCC2(CC(O)c3c(Cl)cccc32)C1)c1ccc(F)cc1 (centres undefined) | 161 to 163 |
| CNS(=O)(=O)c1ccc(OC)c(C(=O)NCC2CCCN2CC2=CCCCC2)c1 (centres undefined) | 140 to 141 |
| C=CCn1c(=O)c2cnc(Nc3ccc(N4CCN(C)CC4)cc3)nc2n(C(C)C)c1=O | 176 to 177 |
| O=C(C1=C(c2ccc(O)cc2)CCc2ccccc21)c1ccc(OCCN2CCCCC2)cc1 | 83 to 85 |
| CC1CCCN(CC(C)N2c3ccccc3Sc3ccc(C(N)=S)cc32)C1 (mixture of isomers) | 236 |
